# Results as given in patent US9701792B2, “Composite compositions and methods of preparing and using same” (THE REGENTS OF THE UNIVERSITY OF COLORADO, A BODY CORPORATE, priority 2014, dated 2017).
# Test: Volumetric shrinkage during photo-CuAAC reaction
# Assay type: physicochemical
# Settings: monomer (2) and 4-pentyl-1-ol in chloroform; azide/alkyne to CuCl2/PMDETA/I819 50:50:1:1
# Method: The volumetric shrinkage behavior during the photo-CuAAC reaction was measured using monomer (2) in FIGS. 3 and 4-pentyl-1-ol in chloroform (molar ratio of azide/alkyne to CuCl2/PMDETA/I819 as 50:50:1:1, the same as the bulk model system). […] In certain embodiments, the total shrinkage is lower in the CuAAC polymerization because the formed triazole concentration is less than the required methacrylate concentration. With appropriate fillers, the composite shrinkage may be reduced further.
smiles,measurement,value
"CC(C)(c1ccc(OCC(O)CN=[N+]=[N-])cc1)c1ccc(OCC(O)CN=[N+]=[N-])cc1 (stereo not shown) [monomer (2), bisphenol A di(3-azido-2-hydroxypropan-1-ol) ether]",molar volume change per triazole formed,22.2 mL/mol
